Experimental data as given in PubChem BioAssay (NCI).
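Growth conditions: 96-well plates. Treatment: test compound, 48 hours, 5 concentrations. Analysis: linear interpolation between bracketing concentrations; unreached endpoints set to highest concentration. Abbreviation: GI50, concentration required for 50% inhibition of growth. TGI: total growth inhibition.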

Assays:
Assay in all cases: NCI tumour cell line growth inhibition, 48 h
MCF7 breast = test system: MCF7 breast
SF-539 CNS = test system: SF-539 CNS
OVCAR-5 ovarian = test system: OVCAR-5 ovarian
RXF 393 renal = test system: RXF 393 renal
SK-MEL-2 melanoma = test system: SK-MEL-2 melanoma
K-562 leukemia = test system: K-562 leukemia
SK-OV-3 ovarian = test system: SK-OV-3 ovarian
DU-145 prostate = test system: DU-145 prostate
HS 578T breast = test system: HS 578T breast
SR leukemia = test system: SR leukemia

Row | SMILES | TGI (MCF7 breast) [µM] | TGI (SF-539 CNS) [µM] | TGI (OVCAR-5 ovarian) [µM] | TGI (RXF 393 renal) [µM] | TGI (SK-MEL-2 melanoma) [µM] | TGI (K-562 leukemia) [µM] | TGI (SK-OV-3 ovarian) [µM] | TGI (DU-145 prostate) [µM] | TGI (HS 578T breast) [µM] | TGI (SR leukemia) [µM] | GI50 (MCF7 breast) [µM] | GI50 (SF-539 CNS) [µM] | GI50 (OVCAR-5 ovarian) [µM] | GI50 (SK-MEL-2 melanoma) [µM] | GI50 (SK-OV-3 ovarian) [µM] | GI50 (HS 578T breast) [µM]
1 | O=C1C=CC2(O[C@H](c3ccccc3)[C@@H](c3ccccc3)O2)[C@H](Sc2ccccc2O)C1 | 2.44 | 1.7 | 4.49 | 0.524 | 4.63 | 78.2 | 11.8 | 2.59 | 7.88 | – | – | – | – | – | – | –
2 | Cc1ccc(-c2cc(-c3ccco3)c(C#N)c(=S)[nH]2)cc1 | > 100 | – | > 100 | > 100 | – | > 100 | > 100 | > 100 | > 100 | > 100 | – | – | – | – | – | –
3 | COc1cc2ccc3c4cc(OC)c(OC)cc4c[n+](C)c3c2cc1O | – | > 100 | > 100 | > 100 | > 100 | > 100 | > 100 | – | – | – | – | – | – | – | – | –
4 | Nc1ncnc2c1nnn2C1C=CC(CP(=O)(O)O)C1 (stereo unspecified) | > 100 | > 100 | > 100 | > 100 | > 100 | – | > 100 | > 100 | > 100 | – | – | – | – | – | – | –
5 | CN(C)C(=O)C(F)(F)C(c1ccc(F)cc1)C1C(=O)N(C)C(=O)N(C)C1=O (stereo unspecified) | > 100 | – | > 100 | > 100 | > 100 | – | > 100 | > 100 | – | – | – | – | – | – | – | –
6 | CC1=NN(C(=O)Cc2ccccc2)C(=O)/C1=C\c1ccc(O)cc1 | – | > 100 | > 100 | > 100 | > 100 | > 100 | > 100 | – | – | – | – | – | – | – | – | –
7 | CCCCCCCCCCCCCCCCCCOc1ccccc1CC(=O)NCC[N+]1(C)CCOCC1 | 9.34 | 12.8 | 4.85 | – | 34.6 | – | 32.4 | – | 9.56 | – | 2.71 | 3.35 | 1.89 | 13.9 | 13.9 | 2.38
8 | CN(C)CCNC(=O)c1cccc2c1Nc1ccccc1S2 | 27 | 28.8 | 26.3 | 23.6 | 30.3 | 36.2 | 30.5 | – | – | – | – | – | – | – | – | –
9 | Cc1ccc2cccc(-c3cccc4ccccc34)c2n1 | – | > 100 | 55.5 | 35.7 | 37.5 | 21 | 75.2 | > 100 | 81.9 | 35.8 | – | – | – | – | – | –
10 | CSCC[C@@H](NC(=O)[C@H](CC(C)C)NC(=O)C(Cc1cnc[nH]1)NC(=O)CNC(=O)[C@@H](NC(=O)[C@H](C)NC(=O)[C@H](Cc1c[nH]c2ccccc12)NC(=O)[C@H](CCC(N)=O)NC(=O)[C@@H](N)CC(N)=O)C(C)C)C(N)=O (stereo partly specified) | > 100 | > 100 | > 100 | > 100 | > 100 | > 100 | > 100 | – | – | – | – | – | – | – | – | –
11 | N#CNC(N)=NCc1ccccc1 | – | > 100 | > 100 | – | > 100 | – | > 100 | – | – | > 100 | – | – | – | – | – | –
12 | CC1CC(N2CCOCC2)=Nc2ccccc2N1C (stereo unspecified) | – | > 100 | > 100 | > 100 | > 100 | > 100 | > 100 | > 100 | > 100 | – | – | – | – | – | – | –
13 | Cc1cc([N+](=O)[O-])c(C)c2c1[nH]c1ccc(Cl)cc12 | – | > 100 | > 100 | – | > 100 | > 100 | – | – | – | > 100 | – | – | – | – | – | –
